Patent US12116355B2, “Deuterated 1-piperazino-3-phenyl indanes for treatment of schizophrenia” (H. Lundbeck A/S, priority 2011, dated 2024)
Where two headings read alike, the source gives them in different places.

Legend:
[1] = biological target: recombinant human liver CYP3A4 (Homo sapiens (Human), UniProt P08684); test: Metabolism by recombinant human liver CYP3A4; format: in vitro ADME
Method: (§1) The protein concentration was 0.5 mg/mL and the final volume was 0.5 mL. […] After 0, 15, 30, 60, 90, 120, and 180 minutes, the reactions were terminated by transferring the subcellular fraction to 0.5 mL of stopping reagent containing internal standard. The incubations were carried out in triplicate. The samples were centrifuged at 4000×g (4° C., 15 minutes) and the supernatants were analyzed by HPLC-MS/MS. Data were expressed as MS area relative to an internal standard.

[2] = biological target: recombinant human liver CYP2C19 (Homo sapiens (Human), UniProt P33261); test: Metabolism by recombinant human liver CYP2C19; format: in vitro ADME
Sequence of recombinant human liver CYP2C19 (P33261 whole entry): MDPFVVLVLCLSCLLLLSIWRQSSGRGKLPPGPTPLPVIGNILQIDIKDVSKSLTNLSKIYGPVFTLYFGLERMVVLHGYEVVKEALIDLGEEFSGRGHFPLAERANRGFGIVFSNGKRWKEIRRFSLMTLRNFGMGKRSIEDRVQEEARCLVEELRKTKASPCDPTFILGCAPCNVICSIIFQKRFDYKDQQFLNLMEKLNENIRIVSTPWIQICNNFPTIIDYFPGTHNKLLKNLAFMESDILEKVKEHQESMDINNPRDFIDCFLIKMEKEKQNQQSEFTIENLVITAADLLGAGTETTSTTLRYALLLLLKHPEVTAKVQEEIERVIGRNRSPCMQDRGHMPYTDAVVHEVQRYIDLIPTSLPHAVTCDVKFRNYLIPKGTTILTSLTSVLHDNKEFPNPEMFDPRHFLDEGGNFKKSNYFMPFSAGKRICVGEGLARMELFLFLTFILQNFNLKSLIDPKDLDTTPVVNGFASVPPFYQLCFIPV
Method: as §1

[3] = tested on: D2 receptors in rat brain; test: In vivo binding to D2 receptors in rat brain; conditions: 20 mg/kg subcutaneous 30 minutes before [3H]-raclopride i.v.
Method: Description of In Vivo Binding to D2 Receptors in Rat Brain
Briefly, 6 rats (male Wistar, 180-200 g) were treated with 20 mg/kg test compound subcutaneous 30 minutes before receiving 9.4 micro Ci [^3H]-raclopride intravenously via the tail vein.
15 minutes after the injection of the radio ligand, the animals were killed by cervical dislocation, the brain quickly removed, and striatum and cerebellum dissected out and homogenized in 5 mL (cerebellum in 20 mL) ice-cold buffer (50 mM K3PO4, pH 7.4). 1.0 mL of the homogenate was filtered through 0.1% PEI-soaked Whatman GF/C filters. This was completed within 60 seconds subsequent to the decapitation. Filters were washed 2 times with 5 mL ice-cold buffer and counted in a scintillation counter. A group of vehicle-treated animals was used to determine [^3H]-raclopride total binding in striatum and non-specific binding in cerebellum.

[4] = Metabolism in pooled human liver microsomes, formation of desmethyl metabolite; format: in vitro ADME
Method: Pooled human liver microsomes (50 donors, from Xenotech) were incubated with 1 μM or 10 μM of compound at 37° C. […] The protein concentration was 0.2 mg/mL and the final volume was 0.5 mL. Following a 10-minute pre-incubation, the reaction was initiated by adding Compound. After 0, 15, 30, 60, 90, 120, and 180 minutes, the reactions were terminated by transferring the subcellular fraction to 0.5 mL of stopping reagent containing internal standard. The incubations were carried out in triplicate. The samples were centrifuged at 4000 g (4° C., 15 min) and the supernatants were analyzed by HPLC-MS/MS. Data were expressed as MS area relative to an internal standard.

[5] = Solubility of salts of Compound (IV); format: physicochemical
[6] = Human pharmacokinetic multiple oral dose study; format: in vivo; conditions: male, healthy young men, 3 mg daily oral for 18 days, plasma after last dose, read-out: mean AUC 0-24 of parent compound
Excerpt: The pharmacokinetics of Compound (IV) and Compound (X) were compared in a multiple oral dose study in healthy young men.

[7] = Log P / log D profile by titration with n-octanol; format: physicochemical; conditions: n-octanol:water, 27° C., ion strength approximately 0.16
Method: A series of three repeated titrations on the same sample in solution was performed, from low to high pH. The first titration was performed with a small amount of n-octanol present in the solution, the second and third with increasing amounts.
A difference curve was created from each of these titrations by blank subtraction, and from these difference curves, the apparent pKa values (poKa) were calculated. From the change in the apparent pKa values (ΔpKa) with the n-octanol:water ratio combined with the real pKa value, the Log P value was calculated and the Log D profile was derived.

[8] = pKa determination by potentiometric titration / Dip Probe Absorption Spectroscopy; format: physicochemical; conditions: ion strength 0.16, extrapolated to zero MeOH
Method: pKa was determined by potentiometric titration of the base at ion strength 0.16 using MeOH as co-solvent. Three series of three repeated titrations on the same solution of the sample was performed in a conventional way from low to high pH and a difference curve was created from each of these titrations by blank subtraction. The apparent pKa-value at each MeOH:water ratio is calculated from the difference curves, and the pKa value is determined by extrapolation to zero MeOH content.
The lower pKa was determined by Dip Probe Absorption Spectroscopy detection during titration of the base at ion strength 0.16 using MeOH as co-solvent. The change in absorption spectra as a function of ionisation is used to calculate the pKa value. Two series of three repeated titrations on the same solution of the sample was performed from low to high pH, with a photo diode array as additional detection. The apparent pKa value at each MeOH:water ratio is calculated by target factor analysis on the change in absorption spectra, and the pKa value is determined by extrapolation to zero MeOH content.

catalepsy in rats [9] = test: Catalepsy test in rats; format: in vivo, rats (male Sprague Dawley); conditions: tartrate s.c. 30 minutes before test
Excerpt: Catalepsy is thought to reflect drug-induced suppression of the ability to initiate a behavioral response. The catalepsy test in rats is a common and widely used preclinical screening test for the EPS liability of potentially antipsychotic drugs. Although catalepsy is usually assessed following acute drug administration, the test has proven to be a reliable predictor for the propensity of an antipsychotic drug to induce EPS (that is, pseudo parkinsonism, dystonia) in humans (Elliott, P. J. et al, J. Neural. Transm. Park. Dis. Dement. Sect. 1990, 2, 79-89; herein incorporated by reference in its entirety). […] The minimal effective dose inducing catalepsy was 10 mg/kg (FIG. 17). […] Eight male Sprague Dawley rats were used in each group. # indicates P<0.05, ## indicates P<0.01 versus vehicle (One-way ANOVA followed by Bonferroni post-hoc test). This dose is 100 times higher than the dose indicating antipsychotic activity (FIG. 16).

[10] = tested on: PCP-induced hyperactivity in mice; test: PCP-induced hyperactivity in mice; conditions: hydrogen tartrate s.c. 30 minutes before test, PCP 2.3 mg/kg s.c.
Method: Locomotor activity was measured for 60 minutes as number of beam breaks (counts). Eight-to-16 male mice were used in each group. ##indicates P<0.01 versus Vehicle-PCP (One-way analysis of variance [ANOVA] followed by Bonferroni post-hoc test).

5-HT2 = conditions: J. Med. Chem. 1995, 38, 4380-4392; cited from earlier work
D1 = conditions: in vitro, J. Med. Chem. 1995, 38, 4380-4392; cited from earlier work
catalepsy in rats [11] = conditions: fumarate salt, J. Med. Chem. 1995, 38, 4380-4392; cited from earlier work
D2 = conditions: in vitro, J. Med. Chem. 1995, 38, 4380-4392; cited from earlier work
[12] = tested on: cryopreserved dog hepatocytes; test: Metabolism in cryopreserved dog hepatocytes, formation of desmethyl metabolite; format: in vitro ADME, dog (male Beagle dog); conditions: for amount of desmethyl metabolite (Compound (XI)) produced, versus Compound (X): cryopreserved dog hepatocytes
Method: Cryopreserved dog (male Beagle dog) hepatocytes (1 million cells/mL in suspension, 50 μL/well) were pre-incubated for 15 minutes in a 96-well plate at 37° C. water bath in DMEM high glucose buffered with 1 M HEPES.

Sequence of recombinant human liver CYP3A4 (P08684 whole entry): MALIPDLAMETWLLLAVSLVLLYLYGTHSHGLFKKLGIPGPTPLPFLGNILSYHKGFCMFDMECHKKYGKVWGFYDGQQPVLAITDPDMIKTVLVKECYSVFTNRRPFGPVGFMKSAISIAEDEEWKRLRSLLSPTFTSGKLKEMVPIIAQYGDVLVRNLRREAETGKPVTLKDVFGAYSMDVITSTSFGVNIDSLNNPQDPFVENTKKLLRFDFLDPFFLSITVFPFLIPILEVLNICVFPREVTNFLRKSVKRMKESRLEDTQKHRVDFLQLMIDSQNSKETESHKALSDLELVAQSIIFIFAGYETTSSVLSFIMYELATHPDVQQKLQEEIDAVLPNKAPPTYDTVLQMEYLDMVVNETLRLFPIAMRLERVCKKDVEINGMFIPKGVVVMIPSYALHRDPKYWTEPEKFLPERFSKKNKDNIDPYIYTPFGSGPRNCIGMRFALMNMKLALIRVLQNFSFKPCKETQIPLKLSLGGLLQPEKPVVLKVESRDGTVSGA

| Compound | amount of desmethyl metabolite produced, versus Compound (X) ([1]; 1 mM (so in the source)) | amount of desmethyl metabolite produced, versus Compound (X) ([1]; 10 mM (so in the source)) | amount of desmethyl metabolite produced, versus Compound (X) ([2]; 1 μM) | amount of desmethyl metabolite produced, versus Compound (X) ([2]; 10 μM) | occupancy of D2 receptors by in vivo binding [3] | amount of desmethyl metabolite produced, versus Compound (X) ([4]; 1 μM) | amount of desmethyl metabolite produced, versus Compound (X) ([4]; 10 μM) | AUC(0-t) [6] | also measured |
| --- | --- | --- | --- | --- | --- | --- | --- | --- | --- |
| [2H]c1c([2H])c([2H])c([C@@H]2C[C@@H](N3CCN(C)C(C)(C)C3)c3cc(Cl)ccc32)c([2H])c1[2H] (single isomer, unassigned) [Compound (II)] | lower | lower | Corresponding results | lower | 75% | lower | lower |  |  |
| [2H]c1c([2H])c([2H])c([C@@H]2C[C@@H](N3CCN(C([2H])([2H])[2H])C(C)(C)C3)c3cc(Cl)ccc32)c([2H])c1[2H] (single isomer, unassigned) [Compound (IV)] | lower | lower | lower | Corresponding results | 70% | lower | lower | 104 ng·h/mL | solubility ([5]; pH 7.6): 100 µg/mL; pH of solubility solution ([5]; salts of Compound (IV)): 7.6; logP [7]: 5.4 ± 0.4; logD ([7]; pH 7.4, read-out: Log D7.4): 3.9 ± 0.4; pKa ([8]; Dip Probe Absorption Spectroscopy, read-out: lower pKa): 2.5 ± 0.1; pKa ([8]; potentiometric titration, read-out: high pKa): 8.9 ± 0.1; induction of catalepsy (catalepsy in rats [9]): dose-dependently induced catalepsy; minimal effective dose inducing catalepsy (catalepsy in rats [9]): 10 mg/kg |
| CN1CCN([C@@H]2C[C@@H](c3ccccc3)c3ccc(Cl)cc32)CC1(C)C (single isomer, unassigned) [Compound (IV)] |  |  |  |  |  |  |  |  | reversal of PCP-induced hyperactivity (locomotor activity) [10]: dose-dependently reverses |
| CN1CCN([C@@H]2C[C@@H](c3ccccc3)c3ccc(Cl)cc32)CC1(C)C [Compound (X), 4-((1R,3S)-6-Chloro-3-phenyl-indan-1-yl)-1,2,2-trimethyl-piperazine] |  |  |  |  |  |  |  | 98 ng·h/mL | 5-HT2 antagonism (5-HT2): potent 5-HT2 antagonist; D1 antagonism (D1): potent D1/D2 antagonist; catalepsy in rats (catalepsy in rats [11]): does not induce catalepsy; D2 antagonism (D2): potent D1/D2 antagonist |
| [2H]C([2H])([2H])N1CCN([C@@H]2C[C@@H](c3ccccc3)c3ccc(Cl)cc32)CC1(C)C [Compound (I), 4-((1R,3S)-6-chloro-3-phenyl-indan-1-yl)-1-methyl-d3-2,2-dimethyl-piperazine] |  |  |  |  |  |  |  |  | amount of desmethyl metabolite (Compound (XI)) produced, versus Compound (X) ([12]; 0.1 μM): lower; amount of desmethyl metabolite (Compound (XI)) produced, versus Compound (X) ([12]; 1 μM): lower; decrease in formation of the desmethyl metabolite (Compound (XI)) in comparison to Compound (X) ([12]; dog hepatocytes): approximately 50% |
